Assay results published in US20160015730A1, “Treatment of Pulmonary Hypertension with Carbonic Anhydrase Inhibitors” (priority 2007, published 2016).

Tests used:
[1] = tested on: patient exhibiting similar symptoms with respect to pulmonary hypertension; experiment: Examples 6-11: procedure of Example 1 repeated with zonisamide or acetazolamide substituted for topiramate; type: in vivo, human
[2] = tested on: patients exhibiting similar symptoms with respect to pulmonary hypertension; experiment: Examples 12-17: procedures of Examples 2 through 5 repeated with zonisamide or acetazolamide substituted for topiramate; type: in vivo, human
[3] = tested on: patient with probable mild pulmonary hypertension; experiment: Example 3 case report: patient with probable mild pulmonary hypertension treated with phentermine and topiramate; type: in vivo, human
Procedure: The third patient was a person with obesity, hypertension, elevated cholesterol, heart murmur and dyspnea on exertion. Their medications were atorvastatin 10 mg daily, captopril 12.5 mg daily, trazodone 50 mg daily, spironolactone 50 mg daily, and bupropion 150 mg daily. They were 64″ tall, weight 319 lbs, BMI 55, initial BP 148/76.
They were treated with phentermine 15 mg daily and topiramate 200 mg daily along with a low fat, low carbohydrate diet and exercise. They were instructed to stop both the spironolactone and captopril since this weight loss treatment results in marked lowering of blood pressure in most patients. […] Blood pressure one week later was 140/86 and weight 317 lbs.

[4] = tested on: patients with pulmonary hypertension; experiment: Summary of the five patients of Examples 1-5; type: in vivo, human
From the text: However, the improvement in pulmonary pressures appeared to be independent of weight loss in these patients.

[5] = tested on: patient with known pulmonary hypertension; experiment: Example 4 case report: patient with known pulmonary hypertension and sleep apnea treated with bupropion, topiramate and phentermine; type: in vivo, human; conditions: topiramate 100 mg daily with bupropion 300 mg
Procedure: The fourth patient was a person with obesity, sleep apnea on CPAP, known pulmonary hypertension with PA pressure estimated at 76 mm Hg by echocardiogram, valvular heart disease (mild-moderate tricuspid and mitral regurgitation), depression and hypertension. They smoked just under half pack of cigarettes per day and was a CO2 retainer by ABG's with a PCO2 of 54 mm Hg on room air. They were short of breath with minimal exertion. Their baseline medications were furosemide 80 mg daily, potassium chloride 20 mEq daily, lisinopril 10 mg daily, carvedilol 25 mg BID, escitalopram 10 mg daily, alprazolam 0.5 mg TID, and nightly oxygen. They were 68″ tall, weight 284 lbs, BMI 43½, initial BP 122/76. They had 1+ edema of both lower legs and was short of breath on exertion.
They were treated with aspirin 81 mg coated daily, bupropion 300 mg daily, topiramate 100 mg daily, phentermine 5 mg daily, along with a low fat, low carbohydrate diet and light exercise. By the first 4 weeks of follow-up, they had lost 17 lbs and was breathing much better. […] They were still smoking cigarettes occasionally. They had lost 38 lbs. Their blood pressure was 110/70 on only lisinopril 10 mg daily. Furosemide and carvedilol had been gradually discontinued due to improved edema, blood pressure, and breathing. An echocardiogram performed at three months into the program was mostly unchanged from their prior echocardiogram except that the pulmonary artery pressure was reported as normal. This change was consistent with their clinical picture.

[6] = tested on: patient with pulmonary hypertension; experiment: Example 5 case report: patient with COPD and pulmonary hypertension treated with phentermine and topiramate; type: in vivo, human; conditions: topiramate 100 mg daily with phentermine 15 mg daily
Procedure: The fifth patient was a person with obesity, diabetes, hypertension, hypothyroidism, elevated cholesterol, COPD, and pulmonary hypertension. […] They had stopped smoking 1PPD about 10 years previously. Their baseline medications were verapamil 240 mg daily, losartan-HCTZ 50-12.5 daily, levothyroxine 0.125 mg daily, Pulmicort […] 2 puffs twice daily, Foradil powder […] twice daily, metformin 500 mg twice daily, atorvastatin 10 mg daily, fluticasone nasal spray 50 mcg 2 puffs daily and vitamins. They were short of breath with minimal exertion. They were 67″ tall, weight 228 lbs, BMI 36, initial BP 138/70.
They were treated with phentermine 15 mg daily and topiramate 100 mg daily. Three years into treatment, their fasting glucose is 106 off metformin compared with 114 on metformin at baseline, their blood pressure is 115/60 on valsartan 80 mg daily and diltiazem CD 120 mg daily (changed from verapamil because of constipation). Their weight has been stable for six months in the low 180's.

[7] = tested on: patient with pulmonary hypertension; experiment: Example 2 case report: patient with pulmonary hypertension treated with phentermine and topiramate; type: in vivo, human; conditions: topiramate 200 mg daily with phentermine 15 mg daily
Procedure: The second patient was a person with obesity, hypothyroidism, hypertension, valvular heart disease, elevated cholesterol and depression. Their medications were levothyroxine 50 mcg daily, metoprolol 50 mg daily, venlafaxine 37.5 mg daily, progesterone 100 mg daily, esterified estrogens 1.25 mg daily, and methyltestosterone 2.5 mg daily. They were 63″ tall, weight 178 lbs, BMI 32, initial BP 120/78. They had trace edema of both ankles and a systolic murmur of I/VI along the left sternal border. […] A comment on the report stated that this was a slight increase in pulmonary pressure compared with an echocardiogram taken seven months earlier.
They were treated with phentermine 15 mg daily and topiramate 200 mg daily along with a low fat, low carbohydrate diet and exercise. Metoprolol was discontinued after four months due to low blood pressure. Eight months after treatment started, their weight was 165 lbs, BP was 122/76, and they had no edema. […] No MR was seen.

[8] = tested on: patient with elevated pulmonary artery pressure (pulmonary hypertension); experiment: Example 1 case report: patient with mildly elevated pulmonary artery pressure treated with bupropion and topiramate; type: in vivo, human
Procedure: They were 66″ tall, weight 282 lbs, BMI 46, initial BP 118/80. They had 2+ edema of both ankles, clear lungs, and a systolic murmur along the left sternal border, grade II/VI.
They were started on atorvastatin 10 mg daily as well as bupropion 150 mg daily and topiramate 200 mg daily along with a low fat, low carbohydrate diet and exercise. […] They lost weight continuously on the program and 4 months later had lost 20 lbs. […] After six months, the patient temporarily discontinued the medications. Within a few days, even though their weight was the same, their chest pressure and shortness of breath on exertion returned. On resumption of the treatment, the symptoms resolved within a few days.

Type V phosphodiesterase = Type V phosphodiesterase (Homo sapiens, UniProt O76074); conditions: comparison with avanafil (and sildenafil); cited from earlier work

Compound: NS(=O)(=O)Cc1noc2ccccc12 [zonisamide]
- results relative to Example 1 ([1]; Example 6, 25 mg zonisamide substituted for the topiramate): Substantially the same results
- results relative to Example 1 ([1]; Example 7, 50 mg zonisamide substituted for the topiramate): Substantially the same results
- results relative to Example 1 ([1]; Example 8, 100 mg zonisamide substituted for the topiramate): Substantially the same results
- results relative to Examples 2 through 5 ([2]; 25 mg, 50 mg, and 100 mg zonisamide substituted for topiramate): Substantially the same results

Compound: CC1(C)O[C@@H]2[C@@H](CO[C@@]3(COS(N)(=O)=O)OC(C)(C)O[C@@H]23)O1 [topiramate]
- echocardiogram findings of pulmonary hypertension ([3]; person, topiramate 200 mg daily with phentermine 15 mg daily (bupropion 150 mg daily at baseline), three weeks, before significant weight loss, baseline probable mild pulmonary hypertension): no findings of pulmonary hypertension
- weight ([3]; topiramate 200 mg daily with phentermine 15 mg daily, four weeks, baseline 319 lbs): 317 lbs
- blood pressure ([3]; topiramate 200 mg daily with phentermine 15 mg daily, four weeks, spironolactone and captopril stopped, baseline 148/76): 140/86
- symptomatic improvement ([4]; all patients): symptomatic improvement in all patients
- improvement in pulmonary hypertension ([4]; topiramate with phentermine and/or bupropion, diet and weight loss program): surprising improvement
- weight lost ([5]; person, phentermine 5 mg, aspirin 81 mg daily, diet, light exercise, first 4 weeks, baseline 284 lbs): 17 lbs
- blood pressure ([5]; phentermine 5 mg daily, four months, on only lisinopril 10 mg daily, baseline 122/76): 110/70
- pulmonary artery pressure (echocardiogram) ([5]; phentermine 5 mg daily, three months, baseline estimated 76 mm Hg): normal
- breathing ([5]; phentermine 5 mg, aspirin 81 mg daily, first 4 weeks): much better
- weight lost ([5]; phentermine 5 mg, aspirin 81 mg daily, four months): 38 lbs
- clinical status ([5]; phentermine 5 mg, aspirin 81 mg daily, four months, able to exercise normally without shortness of breath): clinically markedly improved
- fasting glucose ([6]; person, three years, off metformin, baseline 114 on metformin): 106
- pulmonary pressures (echocardiogram) ([6]; 30 months into treatment, baseline 45-50 mm Hg): normal
- symptoms ([6]; exercising more without shortness of breath): symptomatically much better
- weight ([6]; three years, stable for six months, baseline 228 lbs): low 180's
- blood pressure ([6]; three years, on valsartan 80 mg and diltiazem CD 120 mg daily, baseline 138/70): 115/60
- weight ([7]; person, diet and exercise, eight months, baseline 178 lbs): 165 lbs
- edema ([7]; eight months, baseline trace edema of both ankles): no edema
- BP ([7]; eight months, metoprolol discontinued, baseline 120/78): 122/76
- pulmonary artery pressure (echocardiogram) ([7]; nine months on treatment, baseline 39 mm Hg): 33 mm Hg
- mitral regurgitation (MR, echocardiogram) ([7]; nine months on treatment, baseline mild MR): No MR
- tricuspid regurgitation (echocardiogram) ([7]; nine months on treatment, baseline moderate TR): mild
- chest pressure and shortness of breath on exertion after discontinuing the medications ([8]; medications temporarily discontinued after six months, within a few days, weight the same): returned
- exercise tolerance ([8]; person, topiramate 200 mg daily with bupropion 150 mg daily, atorvastatin 10 mg daily, diet and exercise, two weeks after start): markedly improved
- symptoms on resumption of the treatment ([8]; resumption of topiramate 200 mg/bupropion 150 mg treatment, within a few days): resolved
- chest pressure and shortness of breath on exertion ([8]; topiramate 200 mg daily with bupropion 150 mg daily, atorvastatin 10 mg daily, two weeks after start): gone
- weight lost ([8]; topiramate 200 mg daily with bupropion 150 mg daily, atorvastatin, diet and exercise, 4 months, baseline 282 lbs): 20 lbs
- pulmonary pressures (echocardiogram) ([8]; topiramate 200 mg daily with bupropion 150 mg daily, 2 weeks after start of treatment, baseline 36 mm Hg): normal

Compound: CCCc1nn(C)c2c(=O)[nH]c(-c3cc(S(=O)(=O)N4CCN(C)CC4)ccc3OCC)nc12 [sildenafil]
- potency as phosphodiesterase inhibitor relative to avanafil (Type V phosphodiesterase): approximately twice as potent as avanafil

Compound: CC(=O)Nc1nnc(S(N)(=O)=O)s1 [acetazolamide]
- results relative to Example 1 ([1]; Example 9, 100 mg acetazolamide substituted for the topiramate): Substantially the same results
- results relative to Example 1 ([1]; Example 10, 250 mg acetazolamide substituted for the topiramate): Substantially the same results
- results relative to Example 1 ([1]; Example 11, 500 mg acetazolamide substituted for the topiramate): Substantially the same results
- results relative to Examples 2 through 5 ([2]; 100 mg, 250 mg, and 500 mg acetazolamide substituted for topiramate): Substantially the same results
